ChEMBL document CHEMBL1201862, “PubChem BioAssay data set” (2004)
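Interpolation was linear, between the two tested concentrations surrounding the appropriate level; five concentrations were tested over 48 hours in 96-well plates. GI50 marks 50% less growth.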 Activity calls are given as the source filed them. Cut-off read from the data, not from the text of the source: active = GI50 up to about 1.1 µM and inactive = higher.

Experiments:
Experiment in all cases: NCI-60 cell line screen, 48 h
EKVX = test system: EKVX
PC-3 = test system: PC-3
SK-OV-3 = test system: SK-OV-3
SNB-19 = test system: SNB-19
OVCAR-8 = test system: OVCAR-8
HCC 2998 = test system: HCC 2998
TK-10 = test system: TK-10
COLO 205 = test system: COLO 205
A549 = test system: A549
HCT-15 = test system: HCT-15
SF-295 = test system: SF-295
IGROV-1 = test system: IGROV-1
K562 = test system: K562
UACC-62 = test system: UACC-62
SF-539 = test system: SF-539
SK-MEL-5 = test system: SK-MEL-5
RPMI-8226 = test system: RPMI-8226
MCF7 = test system: MCF7
MDA-MB-435 = test system: MDA-MB-435
SR = test system: SR
NCI-H460 = test system: NCI-H460
LOX IMVI = test system: LOX IMVI
SK-MEL-2 = test system: SK-MEL-2
HCT-116 = test system: HCT-116
SW-620 = test system: SW-620
MOLT-4 = test system: MOLT-4
MDA-N = test system: MDA-N
SNB-75 = test system: SNB-75
UO-31 = test system: UO-31
MDA-MB-231 = test system: MDA-MB-231
CCRF-CEM = test system: CCRF-CEM
RXF 393 = test system: RXF 393
NCI/ADR-RES = test system: NCI/ADR-RES
M14 = test system: M14
T47D = test system: T47D
DU-145 = test system: DU-145
U-251 = test system: U-251
HL-60 = test system: HL-60
HOP-62 = test system: HOP-62
SN12C = test system: SN12C
Malme-3M = test system: Malme-3M
SF-268 = test system: SF-268
A498 = test system: A498
CAKI-1 = test system: CAKI-1
NCI-H226 = test system: NCI-H226
NCI-H522 = test system: NCI-H522
OVCAR-5 = test system: OVCAR-5
SK-MEL-28 = test system: SK-MEL-28
ACHN = test system: ACHN
Hs-578T = test system: Hs-578T
NCI-H23 = test system: NCI-H23
OVCAR-3 = test system: OVCAR-3
OVCAR-4 = test system: OVCAR-4
HT-29 = test system: HT-29

Measured: GI50

CNC(=O)OC(C)CN1c2ccccc2Sc2ccc(Cl)cc21 (centres undefined)
> 10 µM: HCT-15
inactive: EKVX > 10 µM | PC-3 > 10 µM | SK-OV-3 > 10 µM | SNB-19 > 10 µM | OVCAR-8 > 10 µM | HCC 2998 > 10 µM | TK-10 > 10 µM | COLO 205 > 10 µM | A549 > 10 µM | SF-295 > 10 µM | IGROV-1 > 10 µM | K562 > 10 µM | UACC-62 > 10 µM | SF-539 > 10 µM | SK-MEL-5 > 10 µM | RPMI-8226 > 10 µM | MCF7 > 10 µM | MDA-MB-435 > 10 µM | SR > 10 µM | NCI-H460 > 10 µM | LOX IMVI > 10 µM | SK-MEL-2 > 10 µM | HCT-116 > 10 µM | SW-620 > 10 µM | MOLT-4 > 10 µM | MDA-N > 10 µM | SNB-75 > 10 µM | UO-31 > 10 µM | MDA-MB-231 > 10 µM | CCRF-CEM > 10 µM | RXF 393 > 10 µM | NCI/ADR-RES > 10 µM | M14 > 10 µM | T47D > 10 µM | DU-145 > 10 µM | U-251 > 10 µM | HL-60 > 10 µM | HOP-62 > 10 µM | SN12C > 10 µM | Malme-3M > 10 µM | SF-268 > 10 µM | A498 > 10 µM | CAKI-1 > 10 µM | NCI-H226 > 10 µM | NCI-H522 > 10 µM | OVCAR-5 > 10 µM | SK-MEL-28 > 10 µM | ACHN > 10 µM | Hs-578T > 10 µM | NCI-H23 > 10 µM | OVCAR-3 > 10 µM | OVCAR-4 > 10 µM | HT-29 > 10 µM
